Broadly, the IC50 is the concentration needed to halve the response being measured. High values mean weaker potency in that assay, low ones greater potency in that assay.

The target of series [1] is T1, P-glycoprotein (P-gp) (Homo sapiens, UniProt P08183). Briefly: biochemical.
The conditions of series [2]: cited from earlier work.
The target of series [3] is T1, P-glycoprotein (P-gp). To be noted: placental IOV; concentration range tested 100 to 1000 μM; 40 nM [3H]-paclitaxel.

Structures can show the parent of a compound that is named as a salt.

T1 sequence (P08183 whole entry): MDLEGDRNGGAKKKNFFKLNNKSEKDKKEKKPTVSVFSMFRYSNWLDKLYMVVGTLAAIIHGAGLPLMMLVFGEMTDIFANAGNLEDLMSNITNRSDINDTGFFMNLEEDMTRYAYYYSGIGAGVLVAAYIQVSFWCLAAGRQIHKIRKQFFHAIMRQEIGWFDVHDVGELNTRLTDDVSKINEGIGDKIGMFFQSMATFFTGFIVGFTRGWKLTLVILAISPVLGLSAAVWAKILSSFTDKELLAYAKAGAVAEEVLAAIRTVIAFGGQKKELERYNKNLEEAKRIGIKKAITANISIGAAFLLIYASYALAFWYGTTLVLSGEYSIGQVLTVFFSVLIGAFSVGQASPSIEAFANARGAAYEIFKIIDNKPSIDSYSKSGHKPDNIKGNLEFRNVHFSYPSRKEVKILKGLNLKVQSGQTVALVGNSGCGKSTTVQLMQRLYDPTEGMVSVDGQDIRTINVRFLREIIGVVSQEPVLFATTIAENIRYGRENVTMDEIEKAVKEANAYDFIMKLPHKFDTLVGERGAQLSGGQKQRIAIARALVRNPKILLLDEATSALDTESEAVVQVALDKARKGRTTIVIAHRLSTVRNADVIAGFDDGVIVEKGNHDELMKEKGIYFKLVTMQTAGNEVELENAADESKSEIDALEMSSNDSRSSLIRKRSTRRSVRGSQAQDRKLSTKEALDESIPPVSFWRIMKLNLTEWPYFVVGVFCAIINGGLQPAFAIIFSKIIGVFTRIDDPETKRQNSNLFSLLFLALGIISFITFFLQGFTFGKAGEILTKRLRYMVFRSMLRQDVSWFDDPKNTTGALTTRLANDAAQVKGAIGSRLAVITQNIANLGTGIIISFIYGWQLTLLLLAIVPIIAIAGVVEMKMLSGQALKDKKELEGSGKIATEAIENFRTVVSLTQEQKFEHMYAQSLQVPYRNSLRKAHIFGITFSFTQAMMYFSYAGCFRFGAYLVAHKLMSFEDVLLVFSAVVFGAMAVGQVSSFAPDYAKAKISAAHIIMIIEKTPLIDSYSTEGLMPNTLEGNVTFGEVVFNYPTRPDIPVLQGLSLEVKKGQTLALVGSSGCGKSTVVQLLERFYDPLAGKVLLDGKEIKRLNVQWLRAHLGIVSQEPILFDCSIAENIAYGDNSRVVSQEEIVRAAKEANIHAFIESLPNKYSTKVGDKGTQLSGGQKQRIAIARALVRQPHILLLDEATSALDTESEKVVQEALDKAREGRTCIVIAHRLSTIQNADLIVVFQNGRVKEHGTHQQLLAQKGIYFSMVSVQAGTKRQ

Turning to `CCCCCCCCCCNCCN[C@@]1(C)C[C@H](O[C@H]2[C@H](Oc3c4cc5cc3Oc3ccc(cc3Cl)[C@@H](O)[C@@H](NC(=O)[C@@H](CC(C)C)NC)C(=O)N[C@@H](CC(N)=O)C(=O)N[C@H]5C(=O)N[C@H]3C(=O)N[C@H](C(=O)N[C@H](C(=O)O)c5cc(O)c(CNCP(=O)(O)O)c(O)c5-c5cc3ccc5O)[C@H](O)c3ccc(c(Cl)c3)O4)O[C@H](CO)[C@@H](O)[C@@H]2O)O[C@@H](C)[C@H]1O` [telavancin, Telavancin], half-maximal inhibition in series [1] (IC50) was put at 50 µM. Moreover, the binding to proteins in series [2] was 93%.

As for `CN[C@H](CC(C)C)C(=O)N[C@H]1C(=O)N[C@@H](CC(N)=O)C(=O)N[C@H]2C(=O)N[C@H]3C(=O)N[C@H](C(=O)N[C@H](C(=O)O)c4cc(O)cc(O)c4-c4cc3ccc4O)[C@H](O)c3ccc(c(Cl)c3)Oc3cc2cc(c3O[C@@H]2O[C@H](CO)[C@@H](O)[C@H](O)[C@H]2O[C@H]2C[C@](C)(N)[C@H](O)[C@H](C)O2)Oc2ccc(cc2Cl)[C@H]1O` [vancomycin, vancomycin hydrochloride], the “effect on the ATP-dependent uptake of [3H]-paclitaxel by IOV” value in series [3] is reported as “did not affect”. The binding to proteins in series [2] is recorded as 50%.

(Values after publication PMC3891835 (American journal of obstetrics and gynecology, 2012).)
